{"source": "patent US7316928B2", "about": "“Plant fatty acid amide hydrolases” (The University of North Texas, priority 2003, dated 2008)", "key": {"[1]": {"tested_on": "Arabidopsis seedlings", "experiment": "Arabidopsis seedling growth / root elongation on MS medium with exogenous NAE 12:0", "assay_type": "in vivo", "details": "for EC50: Arabidopsis thaliana", "experimental": "FIG. 11A-11C. Lengths of Arabidopsis seedling radicles/roots were measured daily after planting on MS medium that contained increasing concentrations of NAE 12:0. Data points are averages and standard deviation of 20 or more seedlings germinated and grown under identical conditions. There was a pronounced dose-dependent reduction in radicle/root length and elongation rate, similar to that shown previously (Blancaflor et al., 2003) for wildtype seedlings (FIG. 11A), and this seedling growth inhibition was more pronounced at higher NAE concentrations for both knockout lines (FIG. 11B and FIG. 11C).\nFIG. 12. The rate of root elongation was calculated by a linear regression of the data presented in FIG. 11, and plotted as a function of NAE concentration.\nComposite images were taken from seedlings grown on different plates, and were representative of typical replicate experiments. […] The altered profiles of extractable FAAH enzyme activities in mutant and transgenic plants led to predictable differences in the sensitivity of seedlings to exogenous NAE 12:0 indicating a modified ability of these plants to metabolize NAEs. Seedling growth of Arabidopsis wildtype seedlings was inhibited by exogenous treatment of NAE12:0)."}, "[2]": {"target": "Medicago truncatula (Mt) FAAH (Medicago truncatula, UniProt G7ISB0, G303S)", "sequence (G7ISB0 whole entry G303S, looked up, the tested form may be a part)": "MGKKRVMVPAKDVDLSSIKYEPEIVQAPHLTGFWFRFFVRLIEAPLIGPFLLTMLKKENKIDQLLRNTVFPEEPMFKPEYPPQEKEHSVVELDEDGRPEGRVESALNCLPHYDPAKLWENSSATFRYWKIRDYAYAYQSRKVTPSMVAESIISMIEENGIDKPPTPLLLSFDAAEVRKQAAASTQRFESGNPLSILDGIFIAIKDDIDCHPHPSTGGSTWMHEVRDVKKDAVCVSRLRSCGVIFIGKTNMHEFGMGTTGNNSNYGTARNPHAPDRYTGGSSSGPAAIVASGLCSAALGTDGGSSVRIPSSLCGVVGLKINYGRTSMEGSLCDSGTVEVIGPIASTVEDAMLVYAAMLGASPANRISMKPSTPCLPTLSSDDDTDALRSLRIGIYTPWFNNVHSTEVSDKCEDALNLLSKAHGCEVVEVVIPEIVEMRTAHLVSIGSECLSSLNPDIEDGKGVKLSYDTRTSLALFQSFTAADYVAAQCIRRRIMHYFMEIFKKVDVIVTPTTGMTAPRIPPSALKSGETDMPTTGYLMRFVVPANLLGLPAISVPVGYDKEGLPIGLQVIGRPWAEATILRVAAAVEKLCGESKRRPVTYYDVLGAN", "assay_type": "biochemical", "details": "E. coli lysate, compared with NAE 18:2"}, "[3]": {"tested_on": "rice (Os) FAAH", "experiment": "NAE amidohydrolase activity of E. coli lysates expressing rice (Os) FAAH cDNA", "assay_type": "biochemical, Oryza sativa", "details": "E. coli lysate, compared with NAE 18:2"}, "[4]": {"target": "Arabidopsis NAE amidohydrolase (Arabidopsis thaliana, UniProt Q7XJJ7)", "experiment": "NAE amidohydrolase activity survey in crude E. coli lysates expressing Arabidopsis cDNA", "assay_type": "biochemical"}, "[5]": {"target": "Arabidopsis NAE amidohydrolase (FAAH) (Arabidopsis thaliana, UniProt Q7XJJ7)", "assay_type": "biochemical"}, "[6]": {"substrate": "CCCCCCCCCCCCCC(=O)NCCO", "experiment": "purified protein, by the assay type", "details": "other: apparent, substrate, 1 μg protein, pH 9.0, 30 min, 30° C., Michaelis-Menten fit"}, "[7]": {"substrate": "CCCCCCCCCCCCCCCC(=O)NCCO", "experiment": "purified protein, by the assay type", "details": "other: apparent, substrate, 1 μg protein, pH 9.0, 30 min, 30° C., Michaelis-Menten fit"}, "[8]": {"substrate": "CCCCC/C=C\\C/C=C\\CCCCCCCC(=O)NCCO", "experiment": "purified protein, by the assay type", "details": "other: apparent, substrate, 1 μg protein, pH 9.0, 30 min, 30° C., Michaelis-Menten fit"}, "[9]": {"substrate": "CCCCC/C=C\\C/C=C\\C/C=C\\C/C=C\\CCCC(=O)NCCO", "experiment": "purified protein, by the assay type", "details": "other: apparent, substrate, 1 μg protein, pH 9.0, 30 min, 30° C., Michaelis-Menten fit"}, "[10]": {"substrate": "CCCCCCCCCCCC(=O)NCCO", "experiment": "purified protein, by the assay type", "details": "other: apparent, substrate, 1 μg protein, pH 9.0, 30 min, 30° C., Michaelis-Menten fit"}}, "note": "Several values for one entry are separate records, joined by “and”; a condition that tells them apart may be missing. Equal values may be shown once. Read-outs that look alike come from different tables or passages of the source.", "data": [{"molecule": "CCCCCCCCCCCC(=O)NCCO", "note": "[NAE 12:0, N-lauroylethanolamine]", "values": [{"measurement": "EC50", "setting": "[1]; FAAH knockout seedlings, first value of the two knockout lines, read-out: EC50, rate of root elongation", "value": 18, "unit": "µM"}, {"measurement": "EC50", "setting": "[1]; FAAH knockout seedlings, second value of the two knockout lines, read-out: EC50, rate of root elongation", "value": 23, "unit": "µM"}, {"measurement": "EC50", "setting": "[1]; read-out: concentration that reduced growth by 50% (EC50), rate of root elongation, wildtype seedlings", "value": "~29", "unit": "µM"}, {"measurement": "seedling growth inhibition", "setting": "[1]; FAAH gene expression reduced, particularly knockouts, 14 d growth", "value": "greatly exacerbated"}, {"measurement": "seedling sensitivity to application", "setting": "[1]; FAAH overexpressors, 14 d growth", "value": "essentially insensitive"}, {"measurement": "seedling growth", "setting": "[1]; wildtype seedlings, continuous exposure, 14 d growth", "value": "reduced"}]}, {"molecule": "CCCCCCCCCCCCCCCC(=O)NCCO", "note": "[NAE 16:0, N-palmitoylethanolamine]", "values": [{"measurement": "suitability as substrate", "setting": "[2]", "value": "equally suitable substrates"}, {"measurement": "suitability as substrate", "setting": "[3]", "value": "equally suitable substrates"}]}, {"molecule": "CCCCC/C=C\\C/C=C\\CCCCCCCC(=O)NCCO", "note": "[NAE 18:2, N-linoleoylethanolamine]", "values": [{"measurement": "hydrolysis as substrate by recombinant Arabidopsis NAE amidohydrolase", "setting": "[4]", "value": "effectively hydrolyzed"}]}, {"molecule": "O=S(=O)(F)Cc1ccccc1", "note": "[PMSF, Phenylmethylsulfonyl fluoride]", "values": [{"measurement": "Specific Activity", "setting": "[5]", "value": "11.34 ± 0.55 μmol h^−1 mg^−1 Protein and 9.06 ± 1.86 μmol h^−1 mg^−1 Protein and 7.89 ± 0.37 μmol h^−1 mg^−1 Protein and 6.72 ± 0.70 μmol h^−1 mg^−1 Protein and 5.96 ± 0.43 μmol h^−1 mg^−1 Protein"}]}, {"molecule": "ceramide", "values": [{"measurement": "hydrolysis as substrate by recombinant Arabidopsis NAE amidohydrolase", "setting": "[4]", "value": "did not hydrolyze"}, {"measurement": "influence on NAE hydrolysis", "setting": "[4]", "value": "nor did ceramide influence NAE hydrolysis"}]}, {"molecule": "recombinant Arabidopsis thaliana NAE amidohydrolase (Arabidopsis thaliana) (protein) MGKYQVMKRASEVDLSTVKYKAETMKAPHLTGLSFKLFVNLLEAPLIGSLIVDYLKKDNGMTKIFRNTVIPEEPMFRPEFPSQEPEHDVVIVGEDESPIDRLETALKCLPQYDPSRSLHADPVSSFRYWKIRDYAYAYRSKLTTPLQVAKRIISIIEEFGYDKPPTPFLIRFDANEVIKQAEASTRRFEQGNPISVLDGIFVTIKDDIDCLPHPTNGGTTWLHEDRSVEKDSAVVSKLRSCGAILLGKANMHELGMGTTGNNSNYGTTRNPHDPKRYTGGSSSGSAAIVAAGLCSAALGTDGGGSVRIPSALCGITGLKTTYGRTDMTGSLCEGGTVEIIGPLASSLEDAFLVYAAILGSSSADRYNLKPSPPCFPKLLSHNGSNAIGSLRLGKYTKWFNDVSSSDISDKCEDILKLLSNNHGCKVVEIVVPELEEMRAAHVISIGSPTLSSLTPYCEAGKNSKLSYDTRTSFAIFRSFSASDYIAAQCLRRRLMEYHLNIFKDVDVIVTPTTGMTAPVIPPDALKNGETNIQVTTDLMRFVLAANLLGFPAISVPVGYDKEGLPIGLQIMGRPWAEATVLGLAAAVEELAPVTKKPAIFYDILNTN", "values": [{"measurement": "Km", "setting": "[6]", "value": "37.0 ± 5.6", "unit": "µM"}, {"measurement": "Vmax", "setting": "[6]", "value": 0.152, "unit": "µmol/min/mg"}, {"measurement": "Km", "setting": "[7]", "value": "50.8 ± 14.1", "unit": "µM"}, {"measurement": "Vmax", "setting": "[7]", "value": 0.202, "unit": "µmol/min/mg"}, {"measurement": "Km", "setting": "[8]", "value": "26.2 ± 5.3", "unit": "µM"}, {"measurement": "Vmax", "setting": "[8]", "value": 0.235, "unit": "µmol/min/mg"}, {"measurement": "Km", "setting": "[9]", "value": "13.6 ± 2.1", "unit": "µM"}, {"measurement": "Vmax", "setting": "[9]", "value": 0.298, "unit": "µmol/min/mg"}, {"measurement": "Km", "setting": "[10]", "value": "17.6 ± 2.8", "unit": "µM"}, {"measurement": "Vmax", "setting": "[10]", "value": 0.232, "unit": "µmol/min/mg"}]}]}
